These results are taken from PubChem BioAssay (NCI).

Values joined by “and” are separate entries in the source; they are usually repeats but may differ in a detail not shown here. Equal values may be shown once.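 Exposure lasted 48 hours, with cells grown in 96-well plates and compounds tested at five concentrations. GI50 marks 50% less growth. TGI marks complete inhibition of growth.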

Test systems include BT-549 breast; CAKI-1 renal; CCRF-CEM leukemia; EKVX NSCLC; M14 melanoma; OVCAR-4 ovarian; SF-268 CNS; TK-10 renal; DMS 114 small cell lung; SNB-78 CNS.
What all share (assay): NCI tumour cell line growth inhibition, 48 h

For `COc1cc(-c2ncn(/C=C\C(=O)OC(C)C)n2)cc(C(F)(F)F)c1`, the GI50 in the assay on BT-549 breast is 0.0351 µM and 0.0343 µM; in the assay with CAKI-1 renal, 0.0464 µM and 0.0331 µM; with CCRF-CEM leukemia, 0.0362 µM and 0.0446 µM; with EKVX NSCLC it was 2.6 µM; in the assay with M14 melanoma, 0.228 µM and 0.35 µM; in the assay on OVCAR-4 ovarian, 0.0684 µM and 0.0407 µM. Also, the GI50 was 0.0493 µM and 0.0487 µM with SF-268 CNS; 0.271 µM and 0.123 µM in the assay on TK-10 renal. Further, the TGI with BT-549 breast was 1.03 µM and 1.69 µM; with CAKI-1 renal, 12.7 µM and 5.52 µM; in the assay on CCRF-CEM leukemia, 36.1 µM and 12.5 µM; in the assay with EKVX NSCLC, 19.5 µM; in the assay on M14 melanoma it was 4.74 µM and 14.5 µM; in the assay on OVCAR-4 ovarian, 4.18 µM and 9.49 µM. Besides, the TGI with SF-268 CNS is 8 µM and 3.58 µM; with TK-10 renal, 6.91 µM and 5.42 µM.

`O=C(NCc1ccncc1)C12CC3CC(C1)CC(c1ccc(Cl)cc1)(C3)C2`: the GI50 was 10.6 µM with BT-549 breast; 11.9 µM in the assay on CAKI-1 renal; 17.7 µM in the assay on CCRF-CEM leukemia; 11.6 µM in the assay on EKVX NSCLC; 12.7 µM in the assay with M14 melanoma; 10.9 µM with OVCAR-4 ovarian. Moreover, the GI50 with SF-268 CNS was 13.7 µM; in the assay on TK-10 renal, 15.3 µM. For the same compound, the TGI with BT-549 breast stood at 26.4 µM; with CAKI-1 renal, 24.9 µM; in the assay on CCRF-CEM leukemia, 45 µM; in the assay on EKVX NSCLC it was 26.3 µM; with M14 melanoma, 26.9 µM; with OVCAR-4 ovarian, 32.8 µM. Further, the TGI in the assay with SF-268 CNS and in the assay with TK-10 renal was 29.5 µM throughout.

For `NC(N)=NS(=O)(=O)c1ccc(Nc2c3ccccc3nc3c(C(=O)Nc4ccc(S(N)(=O)=O)cc4)ccc(Cl)c23)cc1`, the TGI with CAKI-1 renal, in the assay on DMS 114 small cell lung, in the assay on EKVX NSCLC, in the assay with M14 melanoma, with OVCAR-4 ovarian and in the assay on SF-268 CNS was greater than 100 µM throughout. Besides, the TGI in the assay with SNB-78 CNS and in the assay on TK-10 renal was greater than 100 µM throughout.

Regarding `Fc1cccc2c1cc1ccc3cccc4ccc2c1c34`, the TGI with CAKI-1 renal, in the assay with CCRF-CEM leukemia, in the assay with EKVX NSCLC, in the assay on M14 melanoma, in the assay on OVCAR-4 ovarian and in the assay with SF-268 CNS was greater than 100 µM in each case. Also, the TGI with SNB-78 CNS and in the assay with TK-10 renal was greater than 100 µM throughout.

With `O=C1c2ccccc2C(=O)N1C/C=C/CO`, the TGI in the assay with CAKI-1 renal, in the assay on CCRF-CEM leukemia, with DMS 114 small cell lung, with M14 melanoma, in the assay with OVCAR-4 ovarian and in the assay on SF-268 CNS was greater than 100 µM each time. In addition, the TGI in the assay on SNB-78 CNS and in the assay with TK-10 renal was greater than 100 µM each time.

For the compound `CCc1ccc2c(c1)N(CCO)C1=C(C(=O)OC1)C2c1cccc(Cl)c1` (stereo not given), the GI50 in the assay with BT-549 breast was 1.98 µM; in the assay on CAKI-1 renal, 3.02 µM; in the assay with CCRF-CEM leukemia, 0.739 µM; in the assay on EKVX NSCLC, 5.33 µM; in the assay on M14 melanoma, 0.584 µM; with OVCAR-4 ovarian, 0.834 µM. The GI50 with SF-268 CNS is 0.975 µM; in the assay with TK-10 renal, 6.69 µM. For the same compound, the TGI in the assay with BT-549 breast is 18.7 µM; in the assay with CAKI-1 renal, 35.1 µM; with CCRF-CEM leukemia, 32 µM; in the assay with EKVX NSCLC, 31.1 µM; in the assay on M14 melanoma, 12.2 µM; in the assay with OVCAR-4 ovarian, 28.8 µM. Also, the TGI with SF-268 CNS turned out to be 17.2 µM; with TK-10 renal, 28.8 µM.

For `S=C(N/N=C(/c1ccccc1)c1ccccn1)N1CCCCCC1`, the TGI in the assay on BT-549 breast is 2.07 µM; in the assay with CAKI-1 renal it was 1.87 µM and 2.02 µM; in the assay on EKVX NSCLC, 1.94 µM and 0.365 µM; in the assay on M14 melanoma, 1.47 µM and 0.26 µM; in the assay with OVCAR-4 ovarian, 2.04 µM; in the assay with SF-268 CNS, 1.96 µM and 2.87 µM. Moreover, the TGI in the assay with TK-10 renal was 1.52 µM and 1.86 µM. The GI50 in the assay with CAKI-1 renal was 0.131 µM; with CCRF-CEM leukemia, less than 0.001 µM; with EKVX NSCLC, 0.641 µM.

As to `CCOc1ccccc1NC(=O)CCc1n[nH]c(=S)o1`, the TGI in the assay with CAKI-1 renal, in the assay on CCRF-CEM leukemia, in the assay on EKVX NSCLC, in the assay with M14 melanoma, in the assay with SF-268 CNS and in the assay with SNB-78 CNS was greater than 100 µM throughout. The TGI in the assay on TK-10 renal is greater than 100 µM.

For the compound `COC(=O)c1ccc(Cl)cc1NC(=O)C1CCCCC1`, the TGI in the assay on CAKI-1 renal, with DMS 114 small cell lung, in the assay on EKVX NSCLC, in the assay on OVCAR-4 ovarian, in the assay on SF-268 CNS and with SNB-78 CNS was greater than 100 µM throughout. In the assay on TK-10 renal, this compound came in with a TGI greater than 100 µM.

For `CC[C@@H]1C[C@H]2CC3c4[nH]c5ccc(O)cc5c4CCN(C2)C31`, the TGI with CAKI-1 renal, in the assay with CCRF-CEM leukemia, with DMS 114 small cell lung, with EKVX NSCLC, with M14 melanoma and in the assay on SF-268 CNS was greater than 100 µM each time. Further, the TGI in the assay with SNB-78 CNS and in the assay with TK-10 renal was greater than 100 µM throughout.

As to `O=c1oc2ccc(-n3c(=O)c4ccccc4c4ccccc4c3=O)cc2c2ccccc12`, the TGI with BT-549 breast, in the assay on CAKI-1 renal, with CCRF-CEM leukemia, in the assay on EKVX NSCLC, with M14 melanoma and in the assay with OVCAR-4 ovarian was greater than 100 µM in each case. Besides, the TGI with SF-268 CNS and in the assay on TK-10 renal was greater than 100 µM in each case.

For the compound `O=C(Nc1nc2ccc(F)cc2s1)c1cccnc1Nc1ccc(Cl)cc1`, the GI50 in the assay on BT-549 breast was 2.77 µM; with CAKI-1 renal, 2.56 µM; in the assay on CCRF-CEM leukemia it was 1.54 µM; with EKVX NSCLC, 2.45 µM; with M14 melanoma, 2.94 µM; in the assay on OVCAR-4 ovarian it was 2.99 µM. Further, the GI50 is 3.68 µM in the assay with SF-268 CNS and 5.11 µM in the assay with TK-10 renal. Moreover, the TGI was greater than 29.3 µM in the assay with BT-549 breast; greater than 30.8 µM with CAKI-1 renal; greater than 100 µM with CCRF-CEM leukemia; greater than 82.6 µM in the assay with EKVX NSCLC; greater than 100 µM in the assay with M14 melanoma; greater than 100 µM in the assay on OVCAR-4 ovarian. Moreover, the TGI with SF-268 CNS and with TK-10 renal was greater than 100 µM in each case.

With `O=C(COC(=O)c1cccc2c(=O)c3ccccc3[nH]c12)Nc1ccccc1`, the TGI was greater than 100 µM with CAKI-1 renal; 59.3 µM in the assay on DMS 114 small cell lung; greater than 100 µM in the assay on EKVX NSCLC; greater than 100 µM with M14 melanoma; greater than 100 µM with OVCAR-4 ovarian; greater than 100 µM with SF-268 CNS. In the assay on TK-10 renal, this compound gave a TGI greater than 100 µM.
